Results reported in patent US7696246B2 (Ligand Pharmaceuticals Incorporated, priority 1999, dated 2010).
Read-outs that look alike come from different tables or passages of the source.

Assays:
[1] = target: T1, PR (Homo sapiens, UniProt P06401); assay: PR competitive binding assay; conditions: Cheng-Prusoff
T1 sequence (P06401 1-933): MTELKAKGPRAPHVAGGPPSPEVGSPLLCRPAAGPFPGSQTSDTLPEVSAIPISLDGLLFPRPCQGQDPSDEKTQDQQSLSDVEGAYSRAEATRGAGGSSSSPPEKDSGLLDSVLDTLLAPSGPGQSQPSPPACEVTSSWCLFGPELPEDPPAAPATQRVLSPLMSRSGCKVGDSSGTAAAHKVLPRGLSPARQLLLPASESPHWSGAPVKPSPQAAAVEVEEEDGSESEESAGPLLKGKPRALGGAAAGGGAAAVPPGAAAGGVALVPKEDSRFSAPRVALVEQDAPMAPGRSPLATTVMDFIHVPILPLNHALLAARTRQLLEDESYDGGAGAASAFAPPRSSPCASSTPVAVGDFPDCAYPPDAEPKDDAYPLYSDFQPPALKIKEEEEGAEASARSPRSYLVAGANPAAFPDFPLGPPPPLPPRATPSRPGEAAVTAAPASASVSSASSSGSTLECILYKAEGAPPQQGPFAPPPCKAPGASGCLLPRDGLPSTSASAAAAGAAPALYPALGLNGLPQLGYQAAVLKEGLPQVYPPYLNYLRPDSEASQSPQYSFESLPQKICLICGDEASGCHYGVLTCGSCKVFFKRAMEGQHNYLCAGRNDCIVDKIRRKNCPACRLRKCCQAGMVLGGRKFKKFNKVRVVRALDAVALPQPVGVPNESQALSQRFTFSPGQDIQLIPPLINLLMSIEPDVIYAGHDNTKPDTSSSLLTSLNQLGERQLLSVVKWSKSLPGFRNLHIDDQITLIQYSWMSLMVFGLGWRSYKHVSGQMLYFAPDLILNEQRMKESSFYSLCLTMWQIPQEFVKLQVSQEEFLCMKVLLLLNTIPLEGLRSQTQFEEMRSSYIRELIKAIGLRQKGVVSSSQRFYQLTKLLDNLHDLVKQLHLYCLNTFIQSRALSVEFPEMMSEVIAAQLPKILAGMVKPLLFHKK
Procedure: (§1) After correcting for non-specific binding, IC50 values were determined. […] The IC50 value was determined graphically from a log-logit plot of the data. The Ki values were determined by application of the Cheng-Prusoff equivuation to the IC50 values, the labeled ligand concentration and the Kd of the labeled ligand.

[2] = target: T2, human AR (Homo sapiens, UniProt P10275); assay: AR whole cell competitive binding assay (COS-1 cells, 3H-DHT); conditions: 1 nM 3H-DHT, Cheng-Prusoff
T2 sequence (P10275 1-920): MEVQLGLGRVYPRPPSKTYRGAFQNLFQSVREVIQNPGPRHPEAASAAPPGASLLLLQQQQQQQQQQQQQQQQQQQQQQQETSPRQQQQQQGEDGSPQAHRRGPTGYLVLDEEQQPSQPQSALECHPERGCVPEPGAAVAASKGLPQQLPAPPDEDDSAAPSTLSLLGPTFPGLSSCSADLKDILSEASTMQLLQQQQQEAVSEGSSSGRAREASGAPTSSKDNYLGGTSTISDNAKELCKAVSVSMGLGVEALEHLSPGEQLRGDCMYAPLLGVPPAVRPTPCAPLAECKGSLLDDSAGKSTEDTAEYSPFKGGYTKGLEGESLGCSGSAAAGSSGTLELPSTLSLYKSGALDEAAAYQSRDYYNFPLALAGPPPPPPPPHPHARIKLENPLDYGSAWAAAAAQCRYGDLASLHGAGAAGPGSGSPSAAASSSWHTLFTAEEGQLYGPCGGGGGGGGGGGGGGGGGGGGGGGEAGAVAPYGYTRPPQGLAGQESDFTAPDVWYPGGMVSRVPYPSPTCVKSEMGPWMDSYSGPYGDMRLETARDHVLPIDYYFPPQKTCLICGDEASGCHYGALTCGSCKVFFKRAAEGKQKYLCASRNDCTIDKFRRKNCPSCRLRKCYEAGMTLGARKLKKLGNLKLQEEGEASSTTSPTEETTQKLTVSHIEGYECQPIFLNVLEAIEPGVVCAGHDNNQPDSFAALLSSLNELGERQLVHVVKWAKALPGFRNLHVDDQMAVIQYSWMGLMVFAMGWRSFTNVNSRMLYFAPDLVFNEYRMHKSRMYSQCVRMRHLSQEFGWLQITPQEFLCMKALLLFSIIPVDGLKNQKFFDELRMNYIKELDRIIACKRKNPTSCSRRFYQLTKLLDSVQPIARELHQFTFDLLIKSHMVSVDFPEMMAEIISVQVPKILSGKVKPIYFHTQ
Procedure: AR Binding: For the whole cell binding assay, COS-1 cells in 96-well microtiter plates containing DMEM-10% FBS were transfected as described above with the following plasmid DNA: pRShAR (2 ng/well), pRS-β-Gal (50 ng/well) and pGEM (48 ngcwell). Six hours after transfection, media was removed, the cells were washed with PBS and fresh media was added. The next day, the media was changed to DMEM-serum free to remove any endogenous ligand that might be complexed with the receptor in the cells.
Three replicates were used for each sample. […] The remaining media was removed, the cells were washed three times with PBS to remove unbound ligand, and cells were lysed with a Triton X-100-based buffer.
For the saturation analyses, the difference between the total binding and the nonspecific binding, normalized by the β-Gal rate, was defined as specific binding. […] The Ki values were determined by application of the Cheng-Prusoff equation to the IC50 values, where:
as §1

[3] = target: T2, human AR; assay: Co-transfection assay, AR agonist activity (CV-1 cells, MTV-LUC reporter); assay type: cell-based; conditions: CV-1 cells; for EC50: agonist potency EC50
[4] = target: T1, PR; assay: Co-transfection assay, PR agonist activity (CV-1 cells); assay type: cell-based; set-up: expressed in transfected cells; host or cells: CV-1 cells; conditions: for EC50: agonist potency EC50; for PR Agonist CV-1 Cells Efficacy (%): percent maximal response relative to reference agonist progesterone
[5] = target: T1, PR; assay: Co-transfection assay, PR antagonist activity (CV-1 cells, in presence of progesterone); assay type: cell-based; set-up: expressed in transfected cells; host or cells: CV-1 cells; conditions: for PR Antagonist CV-1 Cells Efficacy (%): percent maximal inhibition, progesterone at its EC50
[6] = target: T2, human AR; assay: Co-transfection assay, AR antagonist activity (CV-1 cells, in presence of DHT); assay type: cell-based; conditions: for AR Antagonist CV-1 Cells Efficacy (%): percent maximal inhibition, DHT at its EC50; for IC50: read-out: AR Antagonist CV-1 Cells Potency

Compound | melting point | Ki [1] | Ki [2] | EC50 [3] | AR Agonist CV-1 Cells Efficacy (%) ([3]; percent maximal response relative to reference agonist DHT) | EC50 [4] | PR Agonist CV-1 Cells Efficacy (%) [4] | IC50 [5] | PR Antagonist CV-1 Cells Efficacy (%) [5] | AR Antagonist CV-1 Cells Efficacy (%) [6] | IC50 [6] | IC50 ([5]; read-out: PR Antagonist CV-1 Cells Potency)
CC(C)(O)C(=O)Nc1ccc2c(C(F)(F)F)cc(=O)[nH]c2c1 | 289 to 291 °C |  |  |  |  |  |  |  |  |  |  | 
CCN(CC(C)(C)C)c1ccc2[nH]c(=O)cc(C(F)(F)F)c2c1 [Compound 242, 6-(N-Ethyl-N-2,2-dimethylpropyl)amino-4-trifluoromethyl-2(1H)-quinolinone] |  | 70 nM | 32 nM | 2.8 nM | 66% | > 10000 nM | na (na = not active (i.e. efficacy of <20 and potency of >10,000)) | 200 nM | 95% | na (na = not active (i.e. efficacy of <20 and potency of >10,000)) | > 10000 nM | 
CC1(C)OC(=S)Nc2ccc(C3=CCCCC3)cc21 [Compound 689, 6-(1-Cyclohexenyl)-1,4-dihydro-4,4-dimethyl-1,3-benzo[d]oxazin-2-thione] |  | 23 nM | 132 nM | > 10000 nM |  | 2700 nM | 105% |  | 47% | 89% | 40 nM | 35 nM
